{
  "source": "the supplement of paper PMC10307832",
  "data": [
    {"compound": "COc1cc([C@@H]2c3cc4c(cc3[C@@H](O[C@@H]3O[C@@H]5CO[C@@H](C)O[C@H]5[C@H](O)[C@H]3O)[C@H]3COC(=O)[C@H]23)OCO4)cc(OC)c1O [Etoposide] + C[C@@H](Oc1cc(-c2cnn(C3CCNCC3)c2)cnc1N)c1c(Cl)ccc(F)c1Cl [Crizotinib] (partner 1 µM)", "assay": "relative viability (nuclei count vs DMSO), 5 days (fraction); higher = more cells survive", "conditions": "first compound 0.01 µM", "how_it_was_run": "(§1)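 Lung cancer cell lines were pin-tool dosed in 1536-well plates on the day after seeding, with either a lone drug or a fixed anchor-drug dose plus five library-drug doses (not always all listed) in √10 steps. Nuclei were counted on 4× images after 5 days. Relative viability is the ratio of treated-well to vehicle-well nuclei counts, with each value a median of duplicate plates.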", "values": [
      {"cell line": "NCI-H2085", "relative viability": 0.91},
      {"cell line": "Calu-6", "relative viability": 0.751},
      {"cell line": "HCC-366", "relative viability": 0.43},
      {"cell line": "NCI-H1666", "relative viability": 0.906},
      {"cell line": "NCI-H647", "relative viability": 1.05},
      {"cell line": "LK-2", "relative viability": 0.264},
      {"cell line": "NCI-H2126", "relative viability": 0.998},
      {"cell line": "SK-MES-1", "relative viability": 0.943},
      {"cell line": "H3255", "relative viability": 0.802},
      {"cell line": "IA-LM", "relative viability": 0.749},
      {"cell line": "NCI-H2170", "relative viability": 1.06},
      {"cell line": "A549", "relative viability": 0.734},
      {"cell line": "NCI-H1299", "relative viability": 0.965},
      {"cell line": "CAL-12T", "relative viability": 0.547},
      {"cell line": "NCI-H1563", "relative viability": 0.95},
      {"cell line": "NCI-H1944", "relative viability": 1.03},
      {"cell line": "ABC-1", "relative viability": 0.791},
      {"cell line": "NCI-H358", "relative viability": 0.689}
    ]},
    {"compound": "COc1cc([C@@H]2c3cc4c(cc3[C@@H](O[C@@H]3O[C@@H]5CO[C@@H](C)O[C@H]5[C@H](O)[C@H]3O)[C@H]3COC(=O)[C@H]23)OCO4)cc(OC)c1O [Etoposide] + C[C@@H](Oc1cc(-c2cnn(C3CCNCC3)c2)cnc1N)c1c(Cl)ccc(F)c1Cl [Crizotinib] (partner 1 µM)", "assay": "relative viability (nuclei count vs DMSO), 5 days (fraction); higher = more cells survive", "conditions": "first compound 0.03162 µM", "how_it_was_run": "as §1", "values": [
      {"cell line": "NCI-H838", "relative viability": 0.846},
      {"cell line": "NCI-H1650", "relative viability": 0.776},
      {"cell line": "EBC-1", "relative viability": 0.202},
      {"cell line": "NCI-H1703", "relative viability": 0.521},
      {"cell line": "NCI-H1993", "relative viability": 0.856},
      {"cell line": "NCI-H2087", "relative viability": 1.02},
      {"cell line": "PC-14", "relative viability": 0.896},
      {"cell line": "LCLC-103H", "relative viability": 1.02},
      {"cell line": "NCI-H596", "relative viability": 0.96},
      {"cell line": "NCI-H2228", "relative viability": 0.551},
      {"cell line": "EMC-BAC-2", "relative viability": 0.527},
      {"cell line": "NCI-H2085", "relative viability": 0.871},
      {"cell line": "Calu-6", "relative viability": 0.862},
      {"cell line": "HCC-366", "relative viability": 0.434},
      {"cell line": "NCI-H1666", "relative viability": 0.904},
      {"cell line": "NCI-H647", "relative viability": 1.01},
      {"cell line": "LK-2", "relative viability": 0.265},
      {"cell line": "NCI-H2126", "relative viability": 1.05},
      {"cell line": "SK-MES-1", "relative viability": 0.957},
      {"cell line": "H3255", "relative viability": 0.841},
      {"cell line": "IA-LM", "relative viability": 1.15},
      {"cell line": "NCI-H2170", "relative viability": 1.21},
      {"cell line": "A549", "relative viability": 0.624},
      {"cell line": "NCI-H1299", "relative viability": 1},
      {"cell line": "CAL-12T", "relative viability": 0.573},
      {"cell line": "NCI-H1563", "relative viability": 0.757},
      {"cell line": "NCI-H1944", "relative viability": 1.1},
      {"cell line": "ABC-1", "relative viability": 0.965},
      {"cell line": "NCI-H358", "relative viability": 0.441}
    ]},
    {"compound": "COc1cc([C@@H]2c3cc4c(cc3[C@@H](O[C@@H]3O[C@@H]5CO[C@@H](C)O[C@H]5[C@H](O)[C@H]3O)[C@H]3COC(=O)[C@H]23)OCO4)cc(OC)c1O [Etoposide] + C[C@@H](Oc1cc(-c2cnn(C3CCNCC3)c2)cnc1N)c1c(Cl)ccc(F)c1Cl [Crizotinib] (partner 1 µM)", "assay": "relative viability (nuclei count vs DMSO), 5 days (fraction); higher = more cells survive", "conditions": "first compound 0.1 µM", "how_it_was_run": "as §1", "values": [
      {"cell line": "NCI-H838", "relative viability": 0.973},
      {"cell line": "NCI-H1650", "relative viability": 0.634},
      {"cell line": "NCI-H1703", "relative viability": 0.584},
      {"cell line": "NCI-H1993", "relative viability": 0.734},
      {"cell line": "NCI-H2087", "relative viability": 0.856},
      {"cell line": "PC-14", "relative viability": 0.951},
      {"cell line": "LCLC-103H", "relative viability": 0.984},
      {"cell line": "NCI-H2228", "relative viability": 0.457},
      {"cell line": "EMC-BAC-2", "relative viability": 0.382},
      {"cell line": "NCI-H2085", "relative viability": 0.827},
      {"cell line": "Calu-6", "relative viability": 0.964},
      {"cell line": "HCC-366", "relative viability": 0.217},
      {"cell line": "NCI-H1666", "relative viability": 0.68},
      {"cell line": "NCI-H647", "relative viability": 0.858},
      {"cell line": "LK-2", "relative viability": 0.263},
      {"cell line": "NCI-H2126", "relative viability": 0.765},
      {"cell line": "SK-MES-1", "relative viability": 0.887},
      {"cell line": "H3255", "relative viability": 0.667},
      {"cell line": "IA-LM", "relative viability": 0.475},
      {"cell line": "A549", "relative viability": 0.406},
      {"cell line": "NCI-H1299", "relative viability": 1.04},
      {"cell line": "CAL-12T", "relative viability": 0.82},
      {"cell line": "NCI-H1563", "relative viability": 0.685},
      {"cell line": "NCI-H1944", "relative viability": 0.763},
      {"cell line": "ABC-1", "relative viability": 0.892},
      {"cell line": "NCI-H358", "relative viability": 0.518}
    ]},
    {"compound": "COc1cc([C@@H]2c3cc4c(cc3[C@@H](O[C@@H]3O[C@@H]5CO[C@@H](C)O[C@H]5[C@H](O)[C@H]3O)[C@H]3COC(=O)[C@H]23)OCO4)cc(OC)c1O [Etoposide] + C[C@@H](Oc1cc(-c2cnn(C3CCNCC3)c2)cnc1N)c1c(Cl)ccc(F)c1Cl [Crizotinib] (partner 1 µM)", "assay": "relative viability (nuclei count vs DMSO), 5 days (fraction); higher = more cells survive", "conditions": "first compound 0.3162 µM", "how_it_was_run": "as §1", "values": [
      {"cell line": "NCI-H838", "relative viability": 0.522},
      {"cell line": "NCI-H1650", "relative viability": 0.253},
      {"cell line": "EBC-1", "relative viability": 0.197},
      {"cell line": "NCI-H1703", "relative viability": 0.501},
      {"cell line": "NCI-H1993", "relative viability": 0.712},
      {"cell line": "NCI-H2087", "relative viability": 0.571},
      {"cell line": "PC-14", "relative viability": 0.728},
      {"cell line": "LCLC-103H", "relative viability": 1.06},
      {"cell line": "NCI-H596", "relative viability": 0.808},
      {"cell line": "NCI-H2228", "relative viability": 0.373},
      {"cell line": "EMC-BAC-2", "relative viability": 0.2},
      {"cell line": "NCI-H2085", "relative viability": 0.5},
      {"cell line": "Calu-6", "relative viability": 0.575},
      {"cell line": "HCC-366", "relative viability": 0.0627},
      {"cell line": "NCI-H1666", "relative viability": 0.36},
      {"cell line": "NCI-H647", "relative viability": 0.298},
      {"cell line": "LK-2", "relative viability": 0.219},
      {"cell line": "NCI-H2126", "relative viability": 0.888},
      {"cell line": "SK-MES-1", "relative viability": 0.433},
      {"cell line": "H3255", "relative viability": 0.537},
      {"cell line": "IA-LM", "relative viability": 0.73},
      {"cell line": "NCI-H2170", "relative viability": 1},
      {"cell line": "A549", "relative viability": 0.152},
      {"cell line": "NCI-H1299", "relative viability": 0.948},
      {"cell line": "CAL-12T", "relative viability": 0.298},
      {"cell line": "NCI-H1563", "relative viability": 0.595},
      {"cell line": "NCI-H1944", "relative viability": 0.641},
      {"cell line": "ABC-1", "relative viability": 0.395},
      {"cell line": "NCI-H358", "relative viability": 0.261}
    ]},
    {"compound": "COc1cc([C@@H]2c3cc4c(cc3[C@@H](O[C@@H]3O[C@@H]5CO[C@@H](C)O[C@H]5[C@H](O)[C@H]3O)[C@H]3COC(=O)[C@H]23)OCO4)cc(OC)c1O [Etoposide] + C[C@@H](Oc1cc(-c2cnn(C3CCNCC3)c2)cnc1N)c1c(Cl)ccc(F)c1Cl [Crizotinib] (partner 1 µM)", "assay": "relative viability (nuclei count vs DMSO), 5 days (fraction); higher = more cells survive", "conditions": "first compound 1 µM", "how_it_was_run": "as §1", "values": [
      {"cell line": "NCI-H838", "relative viability": 0.345},
      {"cell line": "NCI-H1650", "relative viability": 0.16},
      {"cell line": "EBC-1", "relative viability": 0.194},
      {"cell line": "NCI-H1703", "relative viability": 0.162},
      {"cell line": "NCI-H1993", "relative viability": 0.473},
      {"cell line": "NCI-H2087", "relative viability": 0.277},
      {"cell line": "PC-14", "relative viability": 0.59},
      {"cell line": "LCLC-103H", "relative viability": 0.988},
      {"cell line": "NCI-H596", "relative viability": 0.681},
      {"cell line": "NCI-H2228", "relative viability": 0.218},
      {"cell line": "EMC-BAC-2", "relative viability": 0.161},
      {"cell line": "NCI-H2085", "relative viability": 0.326},
      {"cell line": "Calu-6", "relative viability": 0.362},
      {"cell line": "HCC-366", "relative viability": 0.0226},
      {"cell line": "NCI-H1666", "relative viability": 0.301},
      {"cell line": "NCI-H647", "relative viability": 0.151},
      {"cell line": "LK-2", "relative viability": 0.23},
      {"cell line": "NCI-H2126", "relative viability": 0.328},
      {"cell line": "SK-MES-1", "relative viability": 0.273},
      {"cell line": "H3255", "relative viability": 0.231},
      {"cell line": "IA-LM", "relative viability": 0.698},
      {"cell line": "NCI-H2170", "relative viability": 0.851},
      {"cell line": "A549", "relative viability": 0.083},
      {"cell line": "NCI-H1299", "relative viability": 0.757},
      {"cell line": "CAL-12T", "relative viability": 0.223},
      {"cell line": "NCI-H1563", "relative viability": 0.448},
      {"cell line": "NCI-H1944", "relative viability": 0.258},
      {"cell line": "ABC-1", "relative viability": 0.179},
      {"cell line": "NCI-H358", "relative viability": 0.139}
    ]}
  ]
}
